Read-outs that look alike come from different tables or passages of the source.
How the values were obtained:
[1] = Critical micellar concentration (CMC) of saponins, ANS fluorimetric method; assay type: physicochemical; conditions: for CMC: QS saponins derived from Quillaja saponaria
Procedure: The critical micellar concentration (CMC) of saponin SO1861 derived from Saponaria officinalis (SO) and QS saponins derived from Quillaja saponaria (QS) (Table A5) was determined by the method of DeVendittis et al. (A fluorimetric method for the estimation of the critical micelle concentration of surfactants, Analytical Biochemistry, Volume 115, Issue 2, August 1981, Pages 278-286) as follows:
The emission spectrum of 8-Anilinonaphthalene-1-sulfonic acid (ANS) in either purified water (MQ) or PBS (Dulbecco's PBS+/+) was determined at dry weight concentrations of saponins ranging from […] to cover the range below and above the CMC. Above the CMC, the fluorescence yield of ANS increases and the wavelength of maximum emission decreases due to portioning of the fluorescent dye into micelles. Fluorescence yields were recorded on a Fluoroskan Ascent FL (Thermo Scientific) at an excitation wavelength of 355 nm, and an emission wavelength of 460 nm. 6 μg at a concentration of 75.86 μM of ANS were used per sample and measurement.

[2] = system: endosomal escape of effector molecule; experiment: Endosomal escape enhancing activity of saponins (cell-based assays, in vivo models); conditions: in vivo animal tumor models, LDL lowering therapy models, free or cleavably conjugated saponin
[3] = Release kinetic assay of saponin from linker at various pH; assay type: physicochemical; conditions: pH 4.0, 37° C.
Procedure: SO1861-SC-Mal (blocked) (saponin covalently coupled to the linker through an acid-labile semicarbazone (sc) bond) was tested for efficient pH sensitive release with a release kinetic assay and compared with release kinetics for SO1861-EMCH (blocked) (saponin covalently coupled to the linker through an acid-labile hydrazone bond). The assay was performed in buffers with pH 7.4, pH 6.0 pH, pH 5.0, pH 4.0 at 37° C. for 24 hours.

[4] = system: A431 cells (EGFR++/HER2+/-/CD71+); experiment: Cell viability / cell killing (MTS) assay on A431 cells; assay type: cell-based, human
Procedure: (§1) Cells were seeded in a 96 well plate at 5.000-10.000 c/w in 100 μL/well and incubated overnight at 37° C. The next day 10× concentrated treatment-mix samples were prepared in PBS, which contain antibody-conjugated SO1861 (i.e. a ‘binding molecule’ or an ‘endosomal escape enhancing conjugate’ of the invention) and targeted-toxin (i.e. a ‘binding molecule’) both at 10× final concentration. The media was removed from the cell culture plate and replaced by 180 μL culture media, followed by the addition of 20 μL treatment-mix/well. For control, 10× treatment-mix samples were prepared that contained the corresponding concentrations of only antibody-conjugated SO1861, only antibody, only SO1861, only targeted-toxin, or PBS without compound as vehicle control. After treatment the cells were incubated for 72 hr at 37° C. before the cell viability was determined by a MTS-assay, performed according to the manufacturer's instruction (CellTiter 96® AQueous One Solution Cell Proliferation Assay, Promega). Briefly, the MTS solution was diluted 20× in DMEM without phenol red (PAN-Biotech GmbH) supplemented with 10% FBS (PAN-Biotech GmbH). The cells were washed once with 200 μL PBS per well, after which 100 μL diluted MTS solution was added per well. The plate was incubated for approximately 20-30 minutes at 37° C. Subsequently, the optical density at 492 nm was measured on a Thermo Scientific Multiskan FC plate reader (Thermo Scientific). For quantification the background signal of ‘medium only’ wells was subtracted from all other wells, before the ratio of untreated/treated cells was calculated, by dividing the background corrected signal of untreated wells over the background corrected signal of the treated wells.
(§2) After treatment the cells were incubated for 72 hr at 37° C. before the cell viability was determined by a MTS-assay, performed according to the manufacturer's instruction (CellTiter 96@AQueous One Solution Cell Proliferation Assay, Promega). Briefly, the MTS solution was diluted 20× in DMEM without phenol red (PAN-Biotech GmbH) supplemented with 10% FBS. The cells were washed once with 200 μL/PBS well, after which 100 μL diluted MTS solution was added/well. The plate was incubated for approximately 20-30 minutes at 37° C. Subsequently, the OD at 492 nm was measured on a Thermo Scientific Multiskan FC plate reader (Thermo Scientific). For quantification the background signal of ‘medium only’ wells was subtracted from all other wells, before the cell viability percentage of treated/untreated cells was calculated, by dividing the background corrected signal of treated wells over the background corrected signal of the untreated wells (×100).

[5] = system: A2058 cells (EGFR-/HER2+/-/CD71+); experiment: Cell viability / cell killing (MTS) assay on A2058 cells; assay type: cell-based, human
Procedure: as §1, §2

[6] = system: MDA-MB-468 cells (HER2-/EGFR++/CD71+); experiment: Cell killing (MTS) assay on MDA-MB-468 cells; assay type: cell-based, human
Procedure: as §2

[7] = system: SK-BR-3 cells (HER2++/EGFR+/CD71+); experiment: Cell killing (MTS) assay on SK-BR-3 cells; assay type: cell-based, human
Procedure: as §2

EGFR (human) = EGFR (human) (UniProt P00533); experiment: cell-based or functional assay

CC(=O)O[C@@H]1[C@H](O[C@@H]2O[C@@H](C)[C@H](O)[C@@H](O)[C@H]2O)[C@@H](O[C@@H]2O[C@@H](C)[C@H](O[C@@H]3OC[C@@H](O)[C@H](O[C@@H]4OC[C@](O)(CO)[C@H]4O)[C@H]3O)[C@@H](O[C@@H]3O[C@H](CO)[C@@H](O)[C@H](O)[C@H]3O)[C@H]2O)[C@H](OC(=O)[C@]23CCC(C)(C)C[C@H]2C2=CC[C@@H]4[C@@]5(C)CC[C@H](O[C@@H]6O[C@H](C(=O)O)[C@@H](O)[C@H](O[C@@H]7OC[C@@H](O)[C@H](O)[C@H]7O)[C@H]6O[C@@H]6O[C@H](CO)[C@H](O)[C@H](O)[C@H]6O)[C@@](C)(C=O)[C@@H]5CC[C@@]4(C)[C@]2(C)C[C@H]3O)O[C@@H]1C [QS7, QS-7]
CMC [1]: 230 ± 25 µM

CCC(C)C(CC(O)CC(=O)OC1C(C)OC(OC(=O)C23CCC(C)(C)CC2C2=CCC4C5(C)CCC(OC6OC(C(=O)O)C(O)C(OC7OCC(O)C(O)C7O)C6OC6OC(CO)C(O)C(O)C6O)C(C)(C=O)C5CCC4(C)C2(C)CC3O)C(OC2OC(C)C(OC3OCC(O)C(OC4OCC(O)(CO)C4O)C3O)C(OC3OC(CO)C(O)C(O)C3O)C2O)C1O)OC(=O)CC(O)CC(OC1OC(CO)C(O)C1O)C(C)CC (stereo not shown) [QS18, QS-18]
CMC [1]: 68 ± 7 µM

C[C@@H]1O[C@@H](O[C@H]2[C@H](OC(=O)[C@]34CCC(C)(C)C[C@H]3C3=CC[C@@H]5[C@@]6(C)CC[C@H](O[C@H]7O[C@H](C(=O)O)[C@@H](O)[C@H](O[C@@H]8OC[C@@H](O)[C@H](O)[C@H]8O)[C@H]7O[C@@H]7O[C@H](CO)[C@H](O)[C@H](O)[C@H]7O)[C@@](C)(C=O)[C@@H]6CC[C@@]5(C)[C@]3(C)CC4)O[C@H](C)[C@H](O[C@@H]3O[C@H](C)[C@@H](O)[C@H](O)[C@H]3O)[C@@H]2O)[C@H](O)[C@H](O)[C@H]1O[C@@H]1OC[C@@H](O)[C@H](O[C@@H]2OC[C@@H](O)[C@H](O)[C@H]2O)[C@H]1O [SA1641]
endosomal escape enhancing activity [2]: activity was confirmed

CC(=O)OC1C(C)OC(OC2C(C)OC(OC(=O)[C@]34CCC(C)(C)CC3C3=CCC5[C@@]6(C)CC[C@H](OC7OC(C(=O)O)C(O)C(OC8OCC(O)C(O)C8O)C7OC7OC(CO)C(O)C(O)C7O)[C@@](C)(C=O)C6CC[C@@]5(C)[C@]3(C)C[C@H]4O)C(OC3OC(C)C(OC4OCC(O)C(OC5OCC(O)C(O)C5O)C4O)C(O)C3O)C2O)C(O)C1OC1OCC(O)C(O)C1O (stereo partly shown) [SO1832]
endosomal escape enhancing activity [2]: activity was confirmed

CC(=O)OC1C(C)OC(OC2C(C)OC(OC(=O)[C@]34CCC(C)(C)CC3C3=CCC5[C@@]6(C)CC[C@H](OC7OC(C(=O)O)C(O)C(OC8OCC(O)C(O)C8O)C7OC7OC(CO)C(O)C(O)C7O)[C@@](C)(C=NNC(=O)CCCCCN7C(=O)CC(SCCO)C7=O)C6CC[C@@]5(C)[C@]3(C)C[C@H]4O)C(OC3OC(C)C(OC4OCC(O)C(OC5OC(CO)C(O)C(O)C5O)C4O)C(O)C3O)C2O)C(O)C1OC1OCC(O)C(O)C1O (stereo partly shown) [SO1861-EMCH (blocked)]
time to 50% release of saponin [3]: 12 h

CC(=O)OC1C(C)OC(OC2C(C)OC(OC(=O)[C@]34CCC(C)(C)CC3C3=CCC5[C@@]6(C)CC[C@H](OC7OC(C(=O)O)C(O)C(OC8OCC(O)C(O)C8O)C7OC7OC(CO)C(O)C(O)C7O)[C@@](C)(/C=N/NC(=O)CCCCCN7C(=O)C=CC7=O)C6CC[C@@]5(C)[C@]3(C)C[C@H]4O)C(OC3OC(C)C(OC4OCC(O)C(OC5OC(CO)C(O)C(O)C5O)C4O)C(O)C3O)C2O)C(O)C1OC1OCC(O)C(O)C1O (stereo partly shown) [SO1861-EMCH]
IC50 ([4]; A431 (EGFR++), titrated on fixed 5 pM bivalent VHH-EGFR-dianthin, read-out: cell killing IC50): 1500 nM | IC50 ([4]; A431 (EGFR++), titrated on fixed 10 pM cetuximab-saporin, read-out: cell killing IC50): 1000 nM | IC50 ([4]; A431 (EGFR++), titrated on fixed 10 pM matuzumab-dianthin, read-out: cell killing IC50): 1500 nM | IC50 ([4]; A431 (EGFR++/CD71+), titrated on fixed 10 pM CD71mab-saporin, read-out: cell killing IC50): 2000 nM | cell killing ([5]; A2058 (EGFR-), titrated on fixed 5 pM bivalent VHH-EGFR-dianthin): not effective | cell killing ([5]; A2058 (EGFR-), titrated on fixed 10 pM matuzumab-dianthin): not effective | IC50 ([5]; A2058 (EGFR-/CD71+), titrated on fixed 10 pM CD71mab-saporin): 1500 nM

GE1741
endosomal escape enhancing activity [2]: activity was confirmed

QS-17 [QS17]
CMC [1]: 70 ± 7 µM

QS-21 [QS21]
CMC [1]: 75 ± 8 µM | endosomal escape enhancing activity [2]: activity was confirmed

SO1700
endosomal escape enhancing activity [2]: activity was confirmed

SO1730
endosomal escape enhancing activity [2]: activity was confirmed

SO1772
endosomal escape enhancing activity [2]: activity was confirmed

SO1861
CMC value ([1]; native SO1861 in PBS): 185 µM | IC50 ([4]; A431 (CD71+), SO1861 titrated on fixed 50 pM VHHCD71-dianthin, read-out: cell killing IC50): 200 nM | IC50 ([4]; A431 (EGFR++), SO1861 titrated on fixed 50 pM VHHEGFR-dianthin, read-out: cell killing IC50): 400 nM | cell killing IC50 ([4]; A431 (HER2+/-), SO1861 titrated on fixed 50 pM VHH-HER2-dianthin): no activity | IC50 ([4]; A431, SO1861 alone, read-out: SO1861 tolerated concentration IC50): 1000 nM | IC50 ([6]; MDA-MB-468 (EGFR++), SO1861 titrated on fixed 50 pM VHH-EGFR-dianthin): 300 nM | IC50 ([6]; MDA-MB-468 (EGFR++), titrated on fixed 1 pM or 5 pM bivalentVHH-EGFR-dianthin): 1000 nM | IC50 ([6]; MDA-MB-468 (HER2-/CD71+), SO1861 titrated on fixed 50 pM VHH-CD71-dianthin): 200 nM | cell killing IC50 ([6]; MDA-MB-468 (HER2-/CD71+), SO1861 titrated on fixed 50 pM VHH-HER2-dianthin): no enhanced activity compared to SO1861 alone | IC50 ([7]; SK-BR-3 (EGFR+), SO1861 titrated on fixed 50 pM VHH-EGFR-dianthin): 700 nM | IC50 ([7]; SK-BR-3 (HER2++/CD71+), SO1861 titrated on fixed 50 pM VHH-CD71-dianthin): 200 nM | IC50 ([7]; SK-BR-3 (HER2++/CD71+), SO1861 titrated on fixed 50 pM VHH-HER2-dianthin): 200 nM | IC50 ([5]; A2058 (CD71+), SO1861 titrated on fixed 50 pM VHHCD71-dianthin): 200 nM | cell killing IC50 ([5]; A2058 (EGFR-), SO1861 titrated on fixed 50 pM VHHEGFR-dianthin): no activity | IC50 ([5]; A2058 (HER2+/-), SO1861 titrated on fixed 50 pM VHH-HER2-dianthin): 700 nM | endosomal escape enhancing activity [2]: activity was confirmed

SO1904
endosomal escape enhancing activity [2]: activity was confirmed

cetuximab-saporin (antibody)
cell killing on MDA-MB-468 (EGFR++), alone (EGFR (human)): 300 pM

Source: US20250295800A1, “CONJUGATE OF A SINGLE DOMAIN ANTIBODY, A SAPONIN AND AN EFFECTOR MOLECULE, PHARMACEUTICAL COMPOSITION COMPRISING THE SAME, THERAPEUTIC USE OF SAID PHARMACEUTICAL COMPOSITION” (SAPREME TECHNOLOGIES B.V., priority 2021, published 2025)
